According to paper PMC7649969, “Pyrazolyl-pyrimidones inhibit the function of human solute carrier protein SLC11A2 (hDMT1) by metal chelation” (RSC Medicinal Chemistry, 2020):
“Also recorded” adds a separate entry of the source.

Test: iron precipitation assay (removal of radioactive 55Fe2+ from buffer)
Format: physicochemical
Conditions: pH 5.5, 55Fe2+ 1 μM, compound 10 μM, 15 min
Experimental: Fig. 4 Chemical evidence of divalent metal complexation by hDMT1 inhibitors. (a and b) Isothermal titration calorimetry of pyrazole 13 (0.4 mM) with Cd^2+ (5 mM) in aqueous buffer pH 7.4 and pH 5.5, 25 °C. (c) Calcein quenching assay in aqueous buffer pH 5.5 (2 μM Fe^2+, 10 μM ligand, 1 μM calcein). Fe^2+ (2 μM), ascorbic acid (200 μM) and compounds (20 μM) were incubated for 5 min before the addition of calcein (1 μM) in Krebs buffer at pH 5.5. Fluorescence was measured after 5 min incubation. (d and e) Removal of radioactive ^55Fe^2+ from buffers upon incubation with ligands and centrifugation. ^55Fe^2+ (1 μM) precipitation upon interaction with the indicated compounds (10 μM). ^55Fe^2+ and the indicated compounds were incubated for 15 min, then, an aliquot of the solution supernatant was taken for determination of the remaining ^55Fe^2+. Data was normalized to the values obtained for the Fe^2+ + DMSO (0.1%) solution and represented as mean ± SD (N = 15; 2 independent experiments). Statistical differences were assessed using T-test or Mann–Whitney U test (Fe^2++ DMSO vs. each compound); p > 0.05 = ns; p < 0.05 = *; p < 0.001 = ***. […]
Iron precipitation assay. Polypropylene tubes containing uptake solution (140 mM NaCl, 2.5 mM KCl, 1 mM CaCl2, 1 mM MgCl2, 1.2 mM K2HPO4, 10 mM glucose, 5 mM HEPES, 5 mM MES, pH 7.4) supplemented with 1 µM Ferrous iron (Fe2+), 100 µM Ascorbic Acid, radiolabelled 55Fe2+ (0.5 µCi/mL) and 10 µM of the different compounds under study were incubated for 15 minutes at RT. Then, 10 µL aliquots from each tube were transferred in quadruplicate to a clear bottom, white -well, poly-D-lysine coated 96-well plate (Corning), and 55Fe2+ content was determined by scintillation counting as above described. […]
Statistics. Except when representative experiments are presented, results are shown as Mean ± Standard deviation (SD). Parametric distribution of the averaged values was assessed by […]
With `Cc1nn(-c2ccccn2)c(O)c1C(=O)Nc1cccc(C(F)(F)F)c1` [Compound 3, reference compound] the “precipitation of Fe2+” value was “only observed precipitation with the literature inhibitor 3; also recorded: high precipitation of iron”.

Same assay, conditions: pH 7.4, 55Fe2+ 1 μM, compound 10 μM, 15 min
For `N=C(N)SCc1cccc2c1oc1c(CSC(=N)N)cccc12` [Compound 1, reference compound], the “precipitation of Fe2+” value was “had no effect”.
With `Cc1cc(O)nc(-n2nc(C)cc2C)n1` [Compound 5] the “precipitation of Fe2+” value was “had no effect”.
For `Cc1nn(-c2ccccn2)c(O)c1C(=O)Nc1cccc(C(F)(F)F)c1` [Compound 3, reference compound], the “precipitation of Fe2+” value was “induced significant precipitation”.
For `Cc1cc(=O)[nH]c(-n2nc3c(c2C)CCCC3)n1` [Compound 13], the “precipitation of Fe2+” value was “induced significant precipitation”.
For `c1ccc(-c2ccccn2)nc1` [bipyridine], the “precipitation of Fe2+” value was “had no effect”.
